# Results published in patent US20020016351A1, “New crystals of celecoxib” (priority 2000, published 2002).
# Experiments:
# [1] = tap density of the crystals; format: physicochemical; settings: typical and characteristic density of the celecoxib crystals
# Text: (§1) One of the main disadvantages of the needle-like crystals of Form II mentioned in WO 00/32189 is their low bulk density. It was found, that the crystals of the invention's Form I are distinctly denser in comparison to the crystals of Form II prepared according to the methods as given in International Applications WO 95/15316 and WO 96/37476. The following densities are typical and characteristic for the crystals of Form I and II, respectively: […]
# [2] = bulk density of the crystals; format: physicochemical; settings: typical and characteristic density of the celecoxib crystals
# Text: as §1
tap density [1],bulk density [2],SMILES
≧about 0.360 g/ml,≧about 0.270 g/ml,"Cc1ccc(-c2cc(C(F)(F)F)nn2-c2ccc(S(N)(=O)=O)cc2)cc1 [Form I, 4-[5-(4-methylphenyl)-3-(trifluoromethyl)-1H-pyrazol-1-yl]benzenesulfonamide]"
about 0.180 g/ml,about 0.130 g/ml,"Cc1ccc(-c2cc(C(F)(F)F)nn2-c2ccc(S(N)(=O)=O)cc2)cc1 [Form II, 4-[5-(4-methylphenyl)-3-(trifluoromethyl)-1H-pyrazol-1-yl]benzenesulfonamide]"
